Reference: PubChem BioAssay AID651973 (The Scripps Research Institute Molecular Screening Center, 2013)
Calls of active or inactive are those of the source. No rule for the calls is given here.

Each compound was assayed on Cell-based VP16 transactivation luciferase reporter, luminescence (assay: VP16 transactivation reporter inhibitors, dose response, counter-screen for LRH-1 inverse agonist project, cell-based, luminescence (AID 651973)).

| SMILES | IC50 |
| --- | --- |
| CCCN(CC(=O)Nc1ccc(C(N)=O)cc1)CC(=O)Nc1ccccc1C | > 35.9 µM (inactive) |
| COc1ccc(NC(=O)CS(=O)(=O)c2ccc(C)cc2)c(OC)c1 | > 35.9 µM (inactive) |
| CCCNC(=O)c1sc2c(c1C(=O)Nc1ccccn1)CCCC2 | > 35.9 µM (inactive) |
| O=C(CN1C(=O)CCC1=O)Nc1ccc(Br)cc1 | > 35.9 µM (inactive) |
| CCCc1cc(=O)oc2c(C)c(OCC(=O)NCCCn3ccnc3)ccc12 | > 35.9 µM (inactive) |
| O=C(COC(=O)c1ccc[n+]([O-])c1)Nc1ccc([N+](=O)[O-])cc1Cl | > 35.9 µM (inactive) |
| Cc1c(NC(=S)NC(=O)c2ccc(Cl)cc2)c(=O)n(-c2ccccc2)n1C | > 35.9 µM (inactive) |
| O=C(Nc1ccccc1C(=O)Nc1nccs1)c1ccccc1 | 14.7 µM (inactive) |
| Cc1ccc(-c2nn3c(C)nnc3s2)cc1NC(=O)c1ccco1 | > 35.9 µM (inactive) |
| N=c1sccn1CC(=O)Nc1ccc(S(N)(=O)=O)cc1 | > 35.9 µM (inactive) |
| O=C(CCl)NCCN1C(=O)S/C(=C\c2cccnc2)C1=O | 26.8 µM (inactive) |
| CCn1c(SCC(=O)Nc2ccc(Cl)cc2)nnc1C1CC1 | > 35.9 µM (inactive) |
| COC(=O)c1ccc(NC(=O)COc2cccc(-n3cnnn3)c2)cc1 | > 35.9 µM (inactive) |
| CCn1cc(Br)c(C(=O)Nc2ccccc2C(=O)OC)n1 | > 35.9 µM (inactive) |
| CCOc1ccc(NC(=O)CSc2nccn(-c3ccc4c(c3)OCCO4)c2=O)cc1 | > 35.9 µM (inactive) |
| Cc1cc([N+](=O)[O-])ccc1NC(=O)CSc1nnc(C)n1C | > 35.8 µM (inactive) |
| CC(Oc1ccc(S(=O)(=O)N2CCCC2)cc1[N+](=O)[O-])C(=O)NC(C)c1ccccc1 (configuration not stated) | 20.1 µM (inactive) |
| COc1ccc(NC(=O)CSc2ncnc3[nH]ncc23)cc1 | > 35.9 µM (inactive) |
| CCCc1cc(=O)oc2cc(C)cc(OCC(=O)Nc3ccccn3)c12 | > 35.9 µM (inactive) |
| CC1SC(C)C(=O)N(CC(=O)Nc2ccc3c(c2)OCO3)C1=O (configuration not stated) | > 35.9 µM (inactive) |
| Cc1cc(Br)ccc1NC(=O)CSc1nnc(CN2CCOCC2)n1C | > 35.9 µM (inactive) |
| Cc1cccc(NC(=O)COC(=O)CN2C(=O)c3ccccc3C2=O)c1C | > 35.9 µM (inactive) |
| O=C(COc1ccc2c3c(c(=O)oc2c1)CCCC3)NCCCN1CCOCC1 | > 35.9 µM (inactive) |
| CC(=O)Nc1cc(-c2ccc(S(C)(=O)=O)cc2)cn2c(-c3ccc(F)cc3)cnc12 | > 35.9 µM (inactive) |

| SMILES | IC50 |
| --- | --- |
| CN1CCN(c2ccc(S(=O)(=O)N3CCCCC3)cc2NC(=O)COc2ccc([N+](=O)[O-])cc2)CC1 | > 35.9 µM (inactive) |
| COc1cc(NC(=O)Cn2ccsc2=N)c(C)cc1[N+](=O)[O-] | > 35.9 µM (inactive) |
| CC(=O)Nc1ccc(NC(=O)CSc2nnc(-c3cc4ccccc4o3)n2C)cc1 | > 35.9 µM (inactive) |
| COc1ccc(-n2c(/C=C(\C)O)nc(=O)c3c(C)cc(C)nc32)cc1 | > 35.9 µM (inactive) |
| CC(O)(c1cccnc1)c1nc(-c2cccc(C#N)c2)cs1 (configuration not stated) | > 35.9 µM (inactive) |
| CC(C)CC1(C)NC(=O)N(CC(=O)Nc2ccc3c(c2)OCCO3)C1=O (configuration not stated) | > 35.9 µM (inactive) |
| CC1=CC(O)C(O)C2(C)C1CC1OC(=O)CC3C(C)C(O)C(=O)C2C13CO (configuration not stated) | > 35.9 µM (inactive) |
| O=C(COC(=O)CCN1C(=O)C2CC=CCC2C1=O)NCCc1ccccc1 (configuration not stated) | > 35.9 µM (inactive) |
| Cc1ccc(C)c(NC(=O)CSc2nc3[nH]ncc3c(=O)[nH]2)c1 | > 35.9 µM (inactive) |
| COCC(=O)NC1CCN(CC(=O)Nc2ccc(OC)cc2[N+](=O)[O-])CC1 | > 35.9 µM (inactive) |
| CCOc1ccc(NC(=O)CSc2nc3[nH]ncc3c(=O)[nH]2)cc1 | > 35.9 µM (inactive) |
| COc1ccc(CCNC(=O)COC(=O)c2cccn2C)cc1 | > 35.9 µM (inactive) |
| CCCc1nnc(SCC(=O)Nc2ccc(OC)cc2)o1 | > 35.9 µM (inactive) |
| COc1ccnc(Oc2ccccc2)c1C(=O)N/C=N/OCc1ccccc1F | 28.2 µM (inactive) |
| O=C(Nc1ccc(Br)cn1)c1ccc([N+](=O)[O-])o1 | > 35.9 µM (inactive) |
| CCOc1ccc(NC(=O)COC(=O)CC2CCCCC2)cc1 | > 35.9 µM (inactive) |
| CCOc1ccc(Cc2nnc(SCC(=O)Nc3ccc(C(C)=O)cc3)[nH]c2=O)cc1 | > 35.9 µM (inactive) |
| O=C(NCC1CCCO1)c1ccc(NC(=O)c2cccc([N+](=O)[O-])c2)cc1 (configuration not stated) | > 35.9 µM (inactive) |
| O=C(COc1ccc2c3c(c(=O)oc2c1)CCCC3)NCCN1CCOCC1 | > 35.8 µM (inactive) |
| COc1ccc(NC(=O)COC(=O)Cc2c[nH]c3ccccc23)cc1Cl | > 35.9 µM (inactive) |
| CCc1ccccc1NC(=O)CSc1nnc([C@@H]2CCCN2C(=O)OC(C)(C)C)o1 | > 35.9 µM (inactive) |
| COc1ccc(CCNC(=O)CSc2ccc(NC(C)=O)cc2)cc1OC | > 35.9 µM (inactive) |
| N#CCSc1ccccc1NC(=O)CN1C(=O)C2CC=CCC2C1=O (configuration not stated) | > 35.9 µM (inactive) |
